# Results published in the supplement of paper PMC10307832.
# Assays:
# Assay in all cases: relative viability (nuclei count vs DMSO), 5 days (fraction); higher = more cells survive
# XMD14-99 + Trametinib = compound: CN1CCN(CC1)C2=CC(=C(C=C2)NC3=NC(=C(S3)C(=O)C4=C(C=CC=C4Cl)Cl)N)OC [XMD14-99] + CC(=O)Nc1cccc(-n2c(=O)n(C3CC3)c(=O)c3c(Nc4ccc(I)cc4F)n(C)c(=O)c(C)c32)c1 [Trametinib] (partner 0.02 µM)
# How it was run: (§1)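 Relative viability was taken as the ratio of nuclei in treated wells to nuclei in vehicle wells. Lung cancer cell lines in 1536-well plates received compounds by pin tool one day after seeding, either one drug alone or a fixed anchor-drug dose plus five library-drug doses (not always all listed) in √10 steps. Nuclei were counted on 4× images after 5 days of treatment, and values are medians of duplicate plates.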
# XMD14-99 + Dasatinib = compound: CN1CCN(CC1)C2=CC(=C(C=C2)NC3=NC(=C(S3)C(=O)C4=C(C=CC=C4Cl)Cl)N)OC [XMD14-99] + Cc1nc(Nc2ncc(C(=O)Nc3c(C)cccc3Cl)s2)cc(N2CCN(CCO)CC2)n1 [Dasatinib] (partner 0.075 µM)
# How it was run: as §1
# AZD1208 + OSI-027 = compound: N[C@@H]1CCCN(c2c(/C=C3\SC(=O)NC3=O)cccc2-c2ccccc2)C1 [AZD1208] + COc1cccc2cc(-c3nc([C@H]4CC[C@H](C(=O)O)CC4)n4ncnc(N)c34)[nH]c12 [OSI-027] (partner 0.5 µM)
# How it was run: as §1
# AZD1208 + Pictilisib = compound: N[C@@H]1CCCN(c2c(/C=C3\SC(=O)NC3=O)cccc2-c2ccccc2)C1 [AZD1208] + CS(=O)(=O)N1CCN(Cc2cc3nc(-c4cccc5[nH]ncc45)nc(N4CCOCC4)c3s2)CC1 [Pictilisib] (partner 1 µM)
# How it was run: as §1
cell line,measurement,setting,value
UMC-11,relative viability,XMD14-99 + Trametinib; first compound 0.08 µM,0.744
same,relative viability,XMD14-99 + Trametinib; first compound 0.8 µM,0.637
same,relative viability,XMD14-99 + Trametinib; first compound 2.53 µM,0.747
same,relative viability,XMD14-99 + Trametinib; first compound 8 µM,0.645
same,relative viability,XMD14-99 + Dasatinib; first compound 0.08 µM,0.441
same,relative viability,XMD14-99 + Dasatinib; first compound 0.8 µM,0.478
same,relative viability,XMD14-99 + Dasatinib; first compound 2.53 µM,0.438
same,relative viability,XMD14-99 + Dasatinib; first compound 8 µM,0.344
same,relative viability,AZD1208 + OSI-027; first compound 0.08 µM,0.333
same,relative viability,AZD1208 + OSI-027; first compound 0.253 µM,0.321
same,relative viability,AZD1208 + OSI-027; first compound 0.8 µM,0.321
same,relative viability,AZD1208 + OSI-027; first compound 2.53 µM,0.329
same,relative viability,AZD1208 + OSI-027; first compound 8 µM,0.294
same,relative viability,AZD1208 + Pictilisib; first compound 0.08 µM,0.507
same,relative viability,AZD1208 + Pictilisib; first compound 0.253 µM,0.612
same,relative viability,AZD1208 + Pictilisib; first compound 0.8 µM,0.51
same,relative viability,AZD1208 + Pictilisib; first compound 2.53 µM,0.389
same,relative viability,AZD1208 + Pictilisib; first compound 8 µM,0.344
